Test results taken from patent US20250002450A1, “CATIONIC STEROID COMPOUNDS, METHOD OF OBTAINING THEREOF, FORMULATIONS COMPRISING THEREOF AND THEIR USES” (UNIVERSIDADE DO PORTO, priority 2021, published 2025).
Converted amounts (≈) assume the structure as drawn.

Key:
[1] = system: Streptococcuss pyogenes ATCC 19615; test: Antibacterial MIC/MBC (broth microdilution); format: cell-based, Streptococcus pyogenes; conditions: Streptococcuss pyogenes ATCC 19615
From the text: (§1) Twelve reference bacterial strains and nine MDR clinically relevant bacterial strains were used in this study. Gram-negative bacteria comprised reference strains E. coli ATCC 25922, K. pneumoniae ATCC 13883, Salmonella enterica serovar Typhimurium CECT 443, P. aeruginosa ATCC 27853, A. baumannii ATCC 19606, C. jejuni ATCC 33560 (ATCC—American Type Culture Collection; CECT—Colección Espanola de Cultivos Tipo); clinical isolates E. coli SA/2, an extended-spectrum β-lactamase (ESBL)-producing strain and P. aeruginosa 33b, a pan-drug-resistant isolate; and animal isolates C. jejuni P5/4, a ciprofloxacin-resistant strain, C. jejuni 4432, C. jejuni 4433, C. jejuni 4448, and E. coli 2252, a COL-resistant strain [42]. Gram-positive strains included S. aureus ATCC 29213, E. faecalis ATCC 29212, S. pyogenes ATCC 19615, and environmental isolates methicillin-resistant S. aureus (MRSA) 66/1 [43], and VAN-resistant enterococci (VRE) E. faecalis B3/101 [44]. Gram-negative fish pathogens Yersinia ruckeri ATCC 29473, Listonella anguillarum ATCC 1924, and Tenacibaculum maritimum ATCC 43397 were also included.
(§2) Strains were kept in Trypto-Casein Soy agar (TSA—Biokar Diagnostics, Allone, Beauvais, France) slants and, before each assay, were sub-cultured in Mueller-Hinton agar (MHA—Biokar Diagnostics, Allone, Beauvais, France). Y. ruckeri ATCC 29473 and L. anguillarum ATCC 1924 were kept in Nutrient Agar (Condalab, Madrid, Spain) and T. maritimum ATCC 43397 was kept in TMM agar (Condalab, Madrid, Spain), and were sub-cultured in the respective culture media before each assay. For S. pyogenes ATCC 19615, CAMHB was supplemented with 3.75% lysed horse blood (LBH—Oxoid, Basingstoke, England), whereas for C. jejuni it was supplemented with 2.5% LHB. Colony-forming unit counts of the inoculum were conducted to determine the initial inoculum size (which should be approximately 5×10^5 CFU/mL). Sterility and growth controls were included in each assay. The 96-well U-shaped untreated polystyrene microtiter plates were incubated for 20 h at 37 degrees C. (42 degrees C. for C. jejuni, in a microaerophilic atmosphere) and the minimal inhibitory concentration (MIC) was determined as the lowest concentration of compound that prevented visible growth. The minimal bactericidal concentration (MBC) was determined by spreading 100 μL of the content of the wells with no visible growth on MH plates. The MBC was determined as the lowest concentration of compound that killed 99.9% of the initial inoculum after overnight incubation at 37 degrees C. Two independent assays were performed for reference and MDR strains.
(§3) An initial screening of the antibacterial activity of the compounds was performed by the Kirby-Bauer disk diffusion method, as recommended by the Clinical and Laboratory Standards Institute (CLSI). Briefly, sterile 6 mm blank paper disks (Oxoid, Basingstoke, England) impregnated with 15 μg of each compound were placed on inoculated MH agar plates. A blank disk with dimethylsulfoxide (DMSO) was used as a negative control. MH inoculated plates were incubated for 18-20 h at 37 degrees C. At the end of incubation, the inhibition halos where measured. The MIC was used to determine the antibacterial activity of each compound, in accordance with the recommendations of the CLSI. Two-fold serial dilutions of the compounds were prepared in Mueller-Hinton Broth 2 (MHB2—Sigma-Aldrich, St. Louis, MO, USA) within the concentration range of 0.062-64 μg/mL. CTX ranging between 0.031-16 μg/mL was used as a control. Sterility and growth controls were included in each assay. Purity checks and colony counts of the inoculum suspensions were also performed in order to ensure that the final inoculum density closely approximates the intended number (5×10^5 CFU/mL). The MIC was determined as the lowest concentration of compound that inhibited growth of the bacteria. The MBC was assessed by spreading 10 μL of culture collected from wells showing no visible growth on MH agar plates. […]

[2] = system: E. coli 2252 (COL-resistant); test: Antibacterial MIC/MBC (broth microdilution); format: cell-based, Escherichia coli; conditions: E. coli 2252 (COL-resistant)
From the text: as §1, §2, §3

E. coli SA/2 (ESBL) = test: Antibacterial MIC/MBC (broth microdilution); format: cell-based, Escherichia coli; conditions: E. coli SA/2 (ESBL)
From the text: as §1, §2, §3

P. aeruginosa 33b (PDR) = test: Antibacterial MIC/MBC (broth microdilution); format: cell-based, Pseudomonas aeruginosa; conditions: P. aeruginosa 33b (PDR)
From the text: as §1, §2, §3

S. aureus 66/1 (MRSA) = test: Antibacterial MIC/MBC (broth microdilution); format: cell-based, Staphylococcus aureus
From the text: as §1, §2, §3

[3] = system: Enterococcuss faecalis ATCC 29212; test: Antibacterial MIC/MBC (broth microdilution); format: cell-based, Enterococcus faecalis; conditions: Enterococcuss faecalis ATCC 29212
From the text: as §1, §2, §3

E. faecalis B3/101 (VRE) = test: Antibacterial MIC/MBC (broth microdilution); format: cell-based, Enterococcus faecalis; conditions: E. faecalis B3/101 (VRE)
From the text: as §1, §2, §3

[4] = system: Pseudomonas aeruginosa ATCC 27853; test: Antibacterial MIC/MBC (broth microdilution); format: cell-based; conditions: Pseudomonas aeruginosa ATCC 27853
From the text: as §1, §2, §3

[5] = system: Escherichia coli ATCC 25922; test: Antibacterial MIC/MBC (broth microdilution); format: cell-based; conditions: Escherichia coli ATCC 25922
From the text: as §1, §2, §3

[6] = system: Klebsiella pneumoniae ATCC 13883; test: Antibacterial MIC/MBC (broth microdilution); format: cell-based; conditions: Klebsiella pneumoniae ATCC 13883
From the text: as §1, §2, §3

[7] = system: Yersinia ruckeri ATCC 29473; test: Antibacterial MIC/MBC (broth microdilution); format: cell-based
From the text: as §1, §2, §3

[8] = system: Acinetobacter baumannii ATCC 19606; test: Antibacterial MIC/MBC (broth microdilution); format: cell-based; conditions: Acinetobacter baumannii ATCC 19606
From the text: as §1, §2, §3

[9] = system: Campylobacter jejuni ATCC 33560; test: Antibacterial MIC/MBC (broth microdilution); format: cell-based; conditions: Campylobacter jejuni ATCC 33560
From the text: as §1, §2, §3

[10] = system: Listonella anguilarum ATCC 1924; test: Antibacterial MIC/MBC (broth microdilution); format: cell-based; conditions: Listonella anguilarum ATCC 1924
From the text: as §1, §2, §3

[11] = system: Salmonella enterica serovar Typhimurium CECT 443; test: Antibacterial MIC/MBC (broth microdilution); format: cell-based
From the text: as §1, §2, §3

[12] = system: Staphylococcus aureus ATCC 29213; test: Antibacterial MIC/MBC (broth microdilution); format: cell-based
From the text: as §1, §2, §3

[13] = system: Tenacibaculum maritimum ATCC 43397; test: Antibacterial disk diffusion; format: cell-based; conditions: Tenacibaculum maritimum ATCC 43397, footnote *
From the text: as §1, §2, §3

C. jejuni 4433 = test: Antibacterial MIC/MBC (broth microdilution); format: cell-based, Campylobacter jejuni
From the text: as §1, §2, §3

C. jejuni 4448 = test: Antibacterial MIC/MBC (broth microdilution); format: cell-based, Campylobacter jejuni
From the text: as §1, §2, §3

C. jejuni P5/4 = test: Antibacterial MIC/MBC (broth microdilution); format: cell-based, Campylobacter jejuni
From the text: as §1, §2, §3

C. jejuni 4432 = test: Antibacterial MIC/MBC (broth microdilution); format: cell-based, Campylobacter jejuni
From the text: as §1, §2, §3

## C[C@H](CCC(=O)NCCc1nc2ccccc2[nH]1)[C@H]1CC[C@H]2[C@@H]3CC[C@@H]4C[C@H](O)CC[C@]4(C)[C@H]3C[C@H](O)[C@]12C [Compound 7, (R)—N-(2-(1H-benzo[d]imidazol-2-yl)ethyl)-4-((3R,5R,8R,9S,10S,12S,13R,14S,17R)-3,12-dihydroxy-10,13-dimethylhexadecahydro-1H-cyclopenta[a]phenanthren-17-yl) pentanamide]
[1]
  MBC: >64 µg/mL
  MIC: >64 µg/mL
[2]
  MBC: >64 µg/mL
  MIC: >64 µg/mL
E. coli SA/2 (ESBL)
  MBC: >64 µg/mL
  MIC: >64 µg/mL
P. aeruginosa 33b (PDR)
  MBC: >64 µg/mL
  MIC: >64 µg/mL
S. aureus 66/1 (MRSA)
  MBC: >64 µg/mL
  MIC: 16 µg/mL (≈ 29.9 µM)
[3]
  MBC: >64 µg/mL
  MIC: >64 µg/mL
E. faecalis B3/101 (VRE)
  MBC: >64 µg/mL
  MIC: >64 µg/mL
[4]
  MBC: >64 µg/mL
  MIC: >64 µg/mL
[5]
  MBC: >64 µg/mL
  MIC: >64 µg/mL
[6]
  MBC: >64 µg/mL
  MIC: >64 µg/mL
[7]
  MBC: >64 µg/mL
  MIC: >64 µg/mL
[8]
  MBC: >64 µg/mL
  MIC: >64 µg/mL
[9]
  MBC: >64 µg/mL
  MIC: >64 µg/mL
[10]
  MBC: >64 µg/mL
  MIC: >64 µg/mL
[11]
  MBC: >64 µg/mL
  MIC: >64 µg/mL
[12]
  MBC: >64 µg/mL
  MIC: 8 µg/mL (≈ 14.9 µM)
[13]
  Inhibition zone diameter (disk diffusion): 9 mm
C. jejuni 4433
  MBC: >64 µg/mL
  MIC: >64 µg/mL
C. jejuni 4448
  MBC: >64 µg/mL
  MIC: >64 µg/mL
C. jejuni P5/4
  MBC: >64 µg/mL
  MIC: >64 µg/mL
C. jejuni 4432
  MBC: >64 µg/mL
  MIC: >64 µg/mL
